Reference: paper PMC9866752 (Life, 2023)

T1: human Frataxin (FXN) (Homo sapiens, UniProt Q16595)
T1 construct: D91-A210, N-terminal 6xHis-GST tag cut with thrombin; E. coli BL21; 15N-labelled
T1 sequence (Q16595 91-210): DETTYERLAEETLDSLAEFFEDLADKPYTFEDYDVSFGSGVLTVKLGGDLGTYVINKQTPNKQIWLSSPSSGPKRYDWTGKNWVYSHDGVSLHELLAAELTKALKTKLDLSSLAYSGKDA

B1: human ferrochelatase (residues R65 to L423) (enzyme, UniProt P22830 65-423, looked up)
chain: RKPKTGILMLNMGGPETLGDVHDFLLRLFLDRDLMTLPIQNKLAPFIAKRRTPKIQEQYRRIGGGSPIKIWTSKQGEGMVKLLDELSPNTAPHKYYIGFRYVHPLTEEAIEEMERDGLERAIAFTQYPQYSCSTTGSSLNAIYRYYNQVGRKPTMKWSTIDRWPTHHLLIQCFADHILKELDHFPLEKRSEVVILFSAHSLPMSVVNRGDPYPQEVSATVQKVMERLEYCNPYRLVWQSKVGPMPWLGPQTDESIKGLCERGRKNILLVPIAFTSDHIETLYELDIEYSQVLAKECGVENIRRAESLNGNPLFSKALADLVHSHIQSNELCSKQLTLSCPLCVNPVCRETKSFFTSQQL
notes: ferrochelatase, human, residues R65 to L423; Eluted as a homodimer (88 kDa); The tag is inferred; no cleavage is described; also called FCH; FECH; source: recombinant expression from pET28a in Luria-Bertani media, purified (cobalt HisTrap, gel filtration)

Tests used:
human Frataxin (FXN) = target: T1, human Frataxin (FXN); experiment: NMR 1H-15N SOFAST-HMQC titration, chemical shift perturbation, Hill fit; format: binding
[1] = target: the molecule itself; experiment: SEC; Sd200/16/600 gel filtration column, last step of the purification; buffer with 50 mM MOPS-Tris pH 8.0, 100 mM KCl, 1% sodium cholate, 10% glycerol, 100 uM TCEP

| Molecule | EC50 (human Frataxin (FXN)) | stoichiometry N [1] |
| --- | --- | --- |
| C=CC1=C(C)c2cc3[nH]c(cc4nc(cc5[nH]c(cc1n2)c(C)c5CCC(=O)O)C(CCC(=O)O)=C4C)c(C)c3C=C [Protoporphyrin IX] | 140 µM |  |
| B1 |  | 2 |
